Data as given in the supplement of paper PMC11208160.

Assay: recombinant UMI read abundance after kanamycin selection (control-corrected) (log10(CPM+1)); higher = more efficient recombination; extreme values may be limits of the assay; sequences stand for … in AGTGCAGAGAAAATCGGCCAGTTTTCTCTGCCTGCAGTCCGCATGCCGTGGGACCCCTTGGGTTCTAACCTGTTGCCTAGATTTATGCAGCGGACTGCCTTTCTCCCAAAGTGATAAACCGG…AGGTTGGTTTCACT; site = the 11-nt donor
Method in brief: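 In a pooled Escherichia coli screen for the IS621 bridge recombinase, donor and donor-binding-loop pairs were each placed with a 12-nt UMI on a plasmid bearing a promoterless kanamycin gene. This library was co-electroporated with a target plasmid encoding a fixed target and T7-inducible recombinase, and cells were plated either on IPTG (0.07 mM) plus kanamycin or without selection, in two replicates each. Recombinant UMIs were PCR-amplified across the donor–target junction and sequenced, and counts were converted to CPM, averaged over replicates, scaled by control-derived factors and reported as log10(CPM+1).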
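Note: IS621 bridge recombinase in Escherichia coli cells against a fixed T5 target plasmid.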

Sequence | recombinant UMI read abundance (log10)
GTAGTCGCATGGACCGGTTTTCCCGGTAATCCGTATTTGCA (site GTAGTCGCTCG) | 1.85
GTAGTCGCATGGACCGGTTTTCCCGGTAATCCGTATTTGCA (site GTAGTCGCTGG) | 0.873
GTAGTCGCATGGACCGGTTTTCCCGGTAATCCGTATTTGCA (site GTAGTCGCTTG) | 2.68
GTAGTCGCATGGACCGGTTTTCCCGGTAATCCGTATTTGCC (site GTAGTCGCTAG) | 1.64
GTAGTCGCATGGACCGGTTTTCCCGGTAATCCGTATTTGCC (site GTAGTCGCTCG) | 0.819
GTAGTCGCATGGACCGGTTTTCCCGGTAATCCGTATTTGCC (site GTAGTCGCTGG) | 2.93
GTAGTCGCATGGACCGGTTTTCCCGGTAATCCGTATTTGCC (site GTAGTCGCTTG) | 2.39
GTAGTCGCATGGACCGGTTTTCCCGGTAATCCGTATTTGTG (site GTAGTCGCTCA) | 2.18
GTAGTCGCATGGACCGGTTTTCCCGGTAATCCGTATTTGTG (site GTAGTCGCTCC) | 0.438
GTAGTCGCATGGACCGGTTTTCCCGGTAATCCGTATTTGTG (site GTAGTCGCTCG) | 1.42
GTAGTCGCATGGACCGGTTTTCCCGGTAATCCGTATTTGTG (site GTAGTCGCTCT) | 1.05
GTAGTCTCATGGACCGGTTTTCCCGGTAATCCGTATTTGCG (site GTAGTCACTCG) | 1.31
GTAGTCTCATGGACCGGTTTTCCCGGTAATCCGTATTTGCG (site GTAGTCCCTCG) | 1.12
GTAGTCTCATGGACCGGTTTTCCCGGTAATCCGTATTTGCG (site GTAGTCGCTCG) | 0.176
GTAGTCTCATGGACCGGTTTTCCCGGTAATCCGTATTTGCG (site GTAGTCTCTCG) | 3
GTAGTTGCATGGACCGGTTTTCCCGGTAATCCGTATTTGCG (site GTAGTAGCTCG) | 2.05
GTAGTTGCATGGACCGGTTTTCCCGGTAATCCGTATTTGCG (site GTAGTCGCTCG) | 1.78
GTAGTTGCATGGACCGGTTTTCCCGGTAATCCGTATTTGCG (site GTAGTGGCTCG) | 0.373
GTAGTTGCATGGACCGGTTTTCCCGGTAATCCGTATTTGCG (site GTAGTTGCTCG) | 2.88
GTATACACATGGACCGGTTTTCCCGGTAATCCGTATTTGTA (site GTATACACTTA) | 2.12
GTATACACATGGACCGGTTTTCCCGGTAATCCGTATTTGTA (site GTATCCACTTA) | 0
GTATACACATGGACCGGTTTTCCCGGTAATCCGTATTTGTA (site GTATGCACTTA) | 0.0117
GTATACACATGGACCGGTTTTCCCGGTAATCCGTATTTGTA (site GTATTCACTTA) | 0.0042
GTATAGACATGGACCGGTTTTCCCGGTAATCCGTATTTGCC (site GAATAGACTGG) | 2.37
GTATAGACATGGACCGGTTTTCCCGGTAATCCGTATTTGCC (site GCATAGACTGG) | 2.19
GTATAGACATGGACCGGTTTTCCCGGTAATCCGTATTTGCC (site GGATAGACTGG) | 0.251

Sequence | recombinant UMI read abundance (log10)
GTATAGACATGGACCGGTTTTCCCGGTAATCCGTATTTGCC (site GTATAGACTGG) | 2.83
GTATATCCATGGACCGGTTTTCCCGGTAATCCGTATTTGGT (site GTATATCCTAC) | 1.08
GTATCAACATGGACCGGTTTTCCCGGTAATCCGTATTTGAA (site GTATCAACTTT) | 1.01
GTATCCACATGGACCGGTTTTCCCGGTAATCCGTATTTGTA (site GTATACACTTA) | 0.926
GTATCCACATGGACCGGTTTTCCCGGTAATCCGTATTTGTA (site GTATCCACTTA) | 1.94
GTATCCACATGGACCGGTTTTCCCGGTAATCCGTATTTGTA (site GTATGCACTTA) | 0.019
GTATCCACATGGACCGGTTTTCCCGGTAATCCGTATTTGTA (site GTATTCACTTA) | 0.00595
GTATGAACATGGACCGGTTTTCCCGGTAATCCGTATTTGTA (site GTATGAACTTA) | 2.42
GTATGAACATGGACCGGTTTTCCCGGTAATCCGTATTTGTA (site GTATGCACTTA) | 0.00699
GTATGAACATGGACCGGTTTTCCCGGTAATCCGTATTTGTA (site GTATGGACTTA) | 0.255
GTATGAACATGGACCGGTTTTCCCGGTAATCCGTATTTGTA (site GTATGTACTTA) | 0
GTATGATCATGGACCGGTTTTCCCGGTAATCCGTATTTGGG (site GTATGATCTCC) | 0.738
GTATGCACATGGACCGGTTTTCCCGGTAATCCGTATTTGTG (site GTATGCACTAA) | 0.198
GTATGCACATGGACCGGTTTTCCCGGTAATCCGTATTTGTG (site GTATGCACTCA) | 1.34
GTATGCACATGGACCGGTTTTCCCGGTAATCCGTATTTGTG (site GTATGCACTGA) | 0.881
GTATGCACATGGACCGGTTTTCCCGGTAATCCGTATTTGTG (site GTATGCACTTA) | 1.29
GTATGCCCATGGACCGGTTTTCCCGGTAATCCGTATTTGTA (site GTATGCACTTA) | 0.0189
GTATGCCCATGGACCGGTTTTCCCGGTAATCCGTATTTGTA (site GTATGCCCTTA) | 0.172
GTATGCCCATGGACCGGTTTTCCCGGTAATCCGTATTTGTA (site GTATGCGCTTA) | 0.0563
GTATGCCCATGGACCGGTTTTCCCGGTAATCCGTATTTGTA (site GTATGCTCTTA) | 1.76
GTATGCTCATGGACCGGTTTTCCCGGTAATCCGTATTTGTA (site GTATGCACTTA) | 0.29
GTATGCTCATGGACCGGTTTTCCCGGTAATCCGTATTTGTA (site GTATGCCCTTA) | 1.2
GTATGCTCATGGACCGGTTTTCCCGGTAATCCGTATTTGTA (site GTATGCGCTTA) | 0.0181
GTATGCTCATGGACCGGTTTTCCCGGTAATCCGTATTTGTA (site GTATGCTCTTA) | 2.99
GTATTCGCATGGACCGGTTTTCCCGGTAATCCGTATTTGCG (site GTAATCGCTCG) | 0.015
GTATTCGCATGGACCGGTTTTCCCGGTAATCCGTATTTGCG (site GTACTCGCTCG) | 0.406
